Values quoted from earlier work, collected in patent US7193081B2, “Process for preparation of cyclic prodrugs of PMEA and PMPA” (Metabasis Therapeutics, Inc., priority 2002, dated 2007).

Key:
hepatitis B = settings: against hepatitis B
HIV = settings: against HIV

SMILES | antiviral activity (hepatitis B) | antiviral activity (HIV)
Nc1ncnc2c1ncn2CCOCP(=O)(O)O [PMEA, 9-(2-phosphonylmethoxyethyl)adenine] | exhibit antiviral activity | exhibit antiviral activity
C[C@H](Cn1cnc2c(N)ncnc21)OCP(=O)(O)O [PMPA, (R)-9-(2-phosphonyl-methoxypropyl)adenine] | exhibit antiviral activity | exhibit antiviral activity
